{
  "source": "patent US10952975B2",
  "about": "“Compositions and methods for treatment of cancer” (priority 2019, dated 2021)",
  "origin": "cited, not measured here",
  "key": {"[1]": {"conditions": "clinical studies"}, "MAT2A [2]": {"biological_target": "T1, MAT2A (Homo sapiens, UniProt P31153)", "T1 sequence (P31153 whole entry)": "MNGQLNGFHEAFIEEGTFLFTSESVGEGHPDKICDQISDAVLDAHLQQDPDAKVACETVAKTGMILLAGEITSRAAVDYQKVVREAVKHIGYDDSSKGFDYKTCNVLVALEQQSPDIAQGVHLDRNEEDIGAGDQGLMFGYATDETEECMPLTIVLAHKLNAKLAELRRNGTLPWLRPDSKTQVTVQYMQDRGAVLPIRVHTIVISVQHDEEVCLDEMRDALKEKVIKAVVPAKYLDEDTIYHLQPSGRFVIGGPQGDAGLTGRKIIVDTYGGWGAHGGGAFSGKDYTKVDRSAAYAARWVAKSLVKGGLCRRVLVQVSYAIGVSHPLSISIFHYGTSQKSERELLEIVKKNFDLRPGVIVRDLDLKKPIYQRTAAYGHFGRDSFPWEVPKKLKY", "conditions": "in vitro"}, "LS174T cells": {"system": "LS174T cells", "conditions": "36 h, 10 μM FIDAS-3"}, "MAT2A [3]": {"biological_target": "T1, MAT2A", "conditions": "cell-free; [L-Met]=[ATP]=1 mM, [MAT2A]=10 μg/mL; 20 min preincubation, 30 min reaction; read-out: IC50, MAT2A-catalyzed SAM synthesis"}, "[4]": {"conditions": "patients with advanced solid tumors"}},
  "note": "Like-named read-outs stand apart in the source and are kept apart here.",
  "data": [
    {"smiles": "COc1ccc(/C=C\\c2cc(OC)c(OC)c(OC)c2)cc1OP(=O)([O-])[O-].[Na+].[Na+]", "note": "[CA-4P, Disodium CA-4-3-O-phosphate]", "values": [
      {"measurement": "maximum tolerated dose", "setting": "[1]", "value": "60-68 mg/m^2"}
    ]},
    {"smiles": "Cc1ccc2c(=O)c3cccc(CC(=O)O)c3oc2c1C", "note": "[DMXAA, 5,6-dimethylxanthenone-4-acetic acid]", "values": [
      {"measurement": "time to arrest of tumor blood flow after administration", "setting": "murine tumors", "value": "≤ 30", "unit": "min"}
    ]},
    {"smiles": "CN(C)c1ccc(/C=C/c2c(F)cccc2F)cc1", "note": "[FIDAS-3]", "values": [
      {"measurement": "competition against SAM for MAT2A binding", "setting": "MAT2A [2]", "value": "effectively competes against SAM"},
      {"measurement": "decrease of SAH level", "setting": "LS174T cells", "value": 56, "unit": "%"},
      {"measurement": "decrease of SAM level", "setting": "LS174T cells", "value": 64, "unit": "%"},
      {"measurement": "IC50", "setting": "MAT2A [3]", "value": 4.9, "unit": "µM"}
    ]},
    {"smiles": "COc1cc(/C=C\\c2ccc(OC)c(OP(=O)(O)O)c2OP(=O)(O)O)cc(OC)c1OC", "note": "[Oxi4503, Tetrasodium Combretastatin A-1 2′,3′-O-diphosphate]", "values": [
      {"measurement": "dose at which a tumor response was seen", "setting": "[4]", "value": 14, "unit": "mg/m^2"},
      {"measurement": "doses with maximum tumor perfusion reductions", "setting": "[4]", "value": "≥ 11", "unit": "mg/m^2"},
      {"measurement": "maximum tolerated dose", "setting": "[4]; escalation to 14 mg/m^2 was possible", "value": 8.5, "unit": "mg/m^2"}
    ]}
  ]
}
